# Experimental data as given in the OPERA property sets (Mansouri et al. 2018).
# Details: for solubility: 25 °C
Structure (SMILES),logP,solubility [µM]
COC(=O)CS(=O)(=O)c1ccc(Cl)cc1,1.31,
Cc1ccc(S(=O)(=O)C2(C(=O)OC(C)C)CCCC2)cc1,2.88,
COC(=O)CS(=O)(=O)c1ccc(Br)cc1,1.52,
COC(=O)C1(S(=O)(=O)c2ccc(Br)cc2)CC1,,214
COC(=O)C1(S(=O)(=O)c2ccc(Br)cc2)CCC1,,282
COC(=O)C1(S(=O)(=O)c2ccc(C)cc2)CCCCC1,2.54,
COC(=O)C1(S(=O)(=O)c2ccccc2)CC1,,5490
CC(C)OC(=O)C1(S(=O)(=O)c2ccc([N+](=O)[O-])cc2)CCCCCC1,,8.5
CC(C)OC(=O)C1(S(=O)(=O)c2ccc([N+](=O)[O-])cc2)CCC1,,174
COC(=O)C1(S(=O)(=O)c2ccc(Br)cc2)CCCCC1,,33.2
COC(=O)C1(S(=O)(=O)c2ccccc2)CCC1,,999
CC(C)(C)OC(=O)C1(S(=O)(=O)c2ccc(Cl)cc2)CC1,,75.8
CC(C)OC(=O)C1(S(=O)(=O)c2ccc(Cl)cc2)CC1,,288
COC(=O)C1(S(=O)(=O)c2ccc(C)cc2)CC1,,1320
CC(C)OC(=O)C1(S(=O)(=O)c2ccc([N+](=O)[O-])cc2)CC1,,54.9
COC(=O)C1(S(=O)(=O)c2ccccc2)CCCC1,,2820
COC(=O)C1(S(=O)(=O)c2ccccc2)CCCCC1,,1410
CC(C)OC(=O)CS(=O)(=O)c1ccc(Cl)cc1,2.04,
COC(=O)C1(S(=O)(=O)c2ccc([N+](=O)[O-])cc2)CC1,,417
COC(=O)C1(S(=O)(=O)c2ccc(Cl)cc2)CC1,,491
CC(C)OC(=O)C1(S(=O)(=O)c2ccc(Cl)cc2)CCCC1,,22.4
Cc1ccc(S(=O)(=O)C2(C(=O)OC(C)C)CC2)cc1,,588
COC(=O)C1(S(=O)(=O)c2ccc(Cl)cc2)CCC1,,1000
CCOC(=O)C1(S(=O)(=O)c2ccc(C)cc2)CC1,,976
COC(=O)CS(=O)(=O)c1ccccc1,0.93,
CCOC(=O)C1(S(=O)(=O)c2ccc(C)cc2)CCC1,,1100
COC(=O)C1(S(=O)(=O)c2ccc(Br)cc2)CCCC1,,97.6
